Data reported in PubChem BioAssay AID624167 (Sanford-Burnham Center for Chemical Genomics, 2012).
Active and inactive are the calls of the source.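 How the source made its calls: active means mean IC50 for reducing PEG3 promoter reporter signal at or below a set limit, with IC50 above the limit in both counter screens; inactive means the rest, including counter screen hits.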

Legend:
Experiment in all cases: inhibition of PEG-3 promoter-driven reporter – cell-based, HeLa, luciferase, CREF/GAPDH counter-screen panel, dose response (AID 624167)
PEG-3 [1] = settings: HeLa PEG-Prom luciferase reporter, overnight, CREF/GAPDH counter-screens
PEG-3 [2] = biological target: PEG-3 (UniProt Q6IN02); settings: HeLa PEG-Prom luciferase reporter, overnight, CREF/GAPDH counter-screens, mean of runs
PEG-3 (UniProt Q6IN02), sequence (Q6IN02 whole entry, looked up): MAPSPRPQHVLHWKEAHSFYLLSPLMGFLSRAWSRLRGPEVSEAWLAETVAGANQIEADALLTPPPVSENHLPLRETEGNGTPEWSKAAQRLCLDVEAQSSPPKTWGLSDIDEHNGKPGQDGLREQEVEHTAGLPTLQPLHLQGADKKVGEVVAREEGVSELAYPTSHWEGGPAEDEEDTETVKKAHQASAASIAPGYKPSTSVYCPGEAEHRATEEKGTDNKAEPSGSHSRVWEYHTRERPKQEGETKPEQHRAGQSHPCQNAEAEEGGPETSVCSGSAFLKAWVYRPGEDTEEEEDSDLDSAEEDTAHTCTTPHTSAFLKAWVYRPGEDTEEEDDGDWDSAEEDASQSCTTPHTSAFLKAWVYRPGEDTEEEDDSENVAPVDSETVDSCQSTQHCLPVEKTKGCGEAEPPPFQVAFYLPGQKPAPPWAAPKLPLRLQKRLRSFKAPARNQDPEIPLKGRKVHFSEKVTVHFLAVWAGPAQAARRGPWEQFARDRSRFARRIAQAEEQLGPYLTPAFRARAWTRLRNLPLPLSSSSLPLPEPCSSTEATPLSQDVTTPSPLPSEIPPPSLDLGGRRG

Rat fibroblasts (CREF) = settings: CREF/GAPDH counter-screens
[3] = run 1, dose range 1, individual replicate IC50 per panel
[4] = run 2, dose range 1, individual replicate IC50 per panel

Compound | IC50 (PEG-3 [1]; [3]) | IC50 (PEG-3 [1]; [4]) | IC50 (PEG-3 [2]) | IC50 (Rat fibroblasts (CREF); mean of runs) | IC50 (Rat fibroblasts (CREF); [3]) | IC50 (Rat fibroblasts (CREF); [4])
Cc1ccccc1OCC(=O)Nc1cccc(C(=O)O)c1 | 1.6 µM | 2.1 µM | 1.85 µM | 18.4 µM | 35.8 µM | 1.11 µM
CN=c1scc(-c2ccccc2F)n1/N=C/c1ccc[nH]1 | 4.9 µM | > 100 µM | inactive | 4.52 µM | 4.41 µM | 4.63 µM
CCCSc1ccc2nc(-c3ccccc3)cn2c1 | 7.01 µM | 9.2 µM | 8.11 µM | 1.53 µM | 1.03 µM | 2.03 µM
N=c1n(CCN2CCCCC2)c2ccccc2n1CC(O)c1ccc(Cl)c(Cl)c1 (stereo not drawn) | 10.1 µM | 8.8 µM | 9.46 µM | 14.2 µM | 13.6 µM | 14.8 µM
C=C1CC(COc2ccc3c(C)c(Cl)c(=O)oc3c2)(c2ccccc2)OC1=O (stereo not drawn) | 6.47 µM | 3.62 µM | 5.04 µM | 9.11 µM | 9.32 µM | 8.9 µM
COc1ccc(OCc2cccc(C(=O)O)c2)cc1 | 0.263 µM | 0.39 µM | 0.327 µM | 10.5 µM | 10.2 µM | 10.8 µM
O=C(/C=C/c1ccccc1)Nc1cccc(C(=O)O)c1 | 1.79 µM | 2.64 µM | 2.22 µM | 5.31 µM | 4.02 µM | 6.6 µM
Cc1ccc(C(=O)Nc2cnc3ccccc3c2)cc1 | 0.416 µM | 0.582 µM | 0.499 µM | 3.89 µM | 3.52 µM | 4.26 µM
COc1ccccc1C(=O)Nc1nc2ccccc2s1 | 0.515 µM | 0.633 µM | 0.574 µM | 0.489 µM | 0.348 µM | 0.631 µM
O=C(NCCc1ccccc1)c1ccc2c(c1)OCCCO2 | 0.466 µM | 0.647 µM | 0.557 µM | 0.589 µM | 0.374 µM | 0.803 µM
Cc1nc2cc(-c3ccccc3)sc2c(=O)n1N | 1.49 µM | 1.34 µM | 1.41 µM | 3.4 µM | 3.94 µM | 2.87 µM
Nc1ccc(-c2nc3ccc(C(=O)O)cc3s2)cc1 | 0.44 µM | 0.286 µM | 0.363 µM | 6.03 µM | 6.25 µM | 5.81 µM
COc1ccc(C(=O)O/N=C(\N)c2ccccn2)cc1 | 3.11 µM | 0.926 µM | 2.02 µM | 1.62 µM | 1.32 µM | 1.93 µM
Cc1cc(/C=N/Nc2ncnc(N)c2[N+](=O)[O-])c(C)n1-c1ccccc1 | 9.88 µM | 12 µM | 11 µM | 1.79 µM | 1.54 µM | 2.04 µM
CCOc1ccc(NC(=O)Nc2cccc(C(=O)O)c2)cc1 | 2.9 µM | 3.58 µM | 3.24 µM | 4.09 µM | 3.07 µM | 5.1 µM
COCCn1c(C)cc(C(=O)CSc2nnc(C)s2)c1C | 5.44 µM | 13.4 µM | 9.4 µM | 8.78 µM | 6.79 µM | 10.8 µM
CCCOc1ccc2cc(-c3ccccn3)c(=O)oc2c1 | 2.05 µM | 4.96 µM | 3.51 µM | 1.33 µM | 1.09 µM | 1.58 µM
Cc1cc(C)c2nc(NNC(=O)c3ccc(S(=O)(=O)N4CC(C)CC(C)C4)cc3)sc2c1 (stereo not drawn) | 7.33 µM | 3.01 µM | 5.17 µM | 8.65 µM | 13.9 µM | 3.36 µM
Cc1ccc2nc(-c3ccccc3)cn2c1 | 1.02 µM | 1.01 µM | 1.01 µM | 0.783 µM | 0.619 µM | 0.948 µM
Cc1ccc(C(=O)CN2C(=O)c3ccccc3S2(=O)=O)cc1 | 6.12 µM | 6.43 µM | 6.27 µM | 8.72 µM | 8.77 µM | 8.68 µM
CN(C)CCCN(C(=O)c1ccc(S(=O)(=O)N2CCc3ccccc3C2)cc1)c1nc2ccc(F)cc2s1 | 11.3 µM | 8.74 µM | 10 µM | 13.4 µM | 9.84 µM | 17 µM
C(=N\Nc1nc2ccccc2[nH]1)/c1ccccn1 | 4.26 µM | 3.87 µM | 4.06 µM | 1.48 µM | 1.14 µM | 1.83 µM
Brc1ccc(N=Nc2ccc3ccccc3n2)cc1 | 5.75 µM | 6.45 µM | 6.1 µM | 0.456 µM | 0.213 µM | 0.698 µM
O=C(Nc1nc2cc3c(cc2s1)OCCO3)C1=COCCO1 | 0.431 µM | 0.622 µM | 0.526 µM | 0.924 µM | 0.575 µM | 1.27 µM
O=C(Nc1ncc([N+](=O)[O-])s1)c1ccc2c(c1)OCO2 | 2.01 µM | 2.41 µM | 2.21 µM | 10.8 µM | 8.9 µM | 12.8 µM
Cc1cc(C(=O)CN2C(=O)c3ccccc3S2(=O)=O)c(C)n1CC1CCCO1 (stereo not drawn) | 0.76 µM | 0.375 µM | 0.568 µM | 3.91 µM | 1.95 µM | 5.86 µM

Compound | IC50 (PEG-3 [1]; [3]) | IC50 (PEG-3 [1]; [4]) | IC50 (PEG-3 [2]) | IC50 (Rat fibroblasts (CREF); mean of runs) | IC50 (Rat fibroblasts (CREF); [3]) | IC50 (Rat fibroblasts (CREF); [4])
CCCCCN1C=CC(=C2C(=O)c3ccccc3C2=O)C=C1 | 1.08 µM | 1.4 µM | 1.24 µM | 0.729 µM | 0.371 µM | 1.09 µM
COc1ccc(CCN2C(=O)C=CC2=O)cc1OC | 10 µM | 7.39 µM | 8.69 µM | 7.92 µM | 6.39 µM | 9.45 µM
O=C(CN1C(=O)c2ccccc2S1(=O)=O)c1ccc2c(c1)OCCCO2 | 0.77 µM | 0.411 µM | 0.59 µM | 1.28 µM | 1.07 µM | 1.48 µM
O=C(NC(=O)c1ccccc1)Nc1ccccn1 | 1.25 µM | 1.88 µM | 1.57 µM | 0.751 µM | 0.676 µM | 0.825 µM
Cc1cc(C)c2c(N)c(C(=O)Nc3ncc(C)s3)sc2n1 | 1.09 µM | 2.26 µM | 1.67 µM | 3.32 µM | 2.88 µM | 3.76 µM
C=CCn1c(C)cc(C2=NNC(=NCC)SC2)c1C | 3.02 µM | 1.72 µM | 2.37 µM | 1.72 µM | 1.49 µM | 1.95 µM
Cc1cc(N2CCN(C)CC2)ccc1NC(=O)c1c2c(nc3ccccc13)CCN(Cc1ccccc1)C2 | 5.6 µM | 12.2 µM | 8.92 µM | 3.01 µM | 2.44 µM | 3.59 µM
O=C(O)c1cccc(COc2ccc(CO)cc2Cl)c1 | 0.202 µM | 0.581 µM | 0.391 µM | 8.35 µM | 8.63 µM | 8.08 µM
CCOC(=O)c1c(NC(C)=O)sc2c(OCC(O)CNC(C)(C)C)c(Br)ccc12 (stereo not drawn) | 18 µM | 9.14 µM | 13.6 µM | – | – | –
Cc1cnc(NC(=O)C2CC(=O)N(c3cccc(Cl)c3)C2)s1 (stereo not drawn) | 23.5 µM | 3.78 µM | 13.6 µM | – | – | –
CC(NNC(=S)N1CCN(c2ccccn2)CC1)c1nccc2ccccc12 (stereo not drawn) | 15.2 µM | 36 µM | inactive | – | – | –
CCOC(=O)C1CCN(c2cc3c(cc2NC(=O)c2ccccc2OCC)n(C)c(=O)n3C)CC1 | 35.7 µM | > 100 µM | inactive | – | – | –
O=C(NC1CCCCC1)Sc1ccc(Cl)cc1 | 30.7 µM | 19.3 µM | inactive | – | – | –
CN(C)CCCN(C(=O)c1ccc(S(=O)(=O)N(C)Cc2ccccc2)cc1)c1nc2cc3c(cc2s1)OCO3 | 19.3 µM | 13.6 µM | 16.4 µM | – | – | –
COc1cc(/C=C/c2ccc3cccc(O)c3n2)c(Br)cc1O | 63.2 µM | 42.7 µM | inactive | – | – | –
CCOC(=O)c1c(NC(=O)COc2ccccc2F)sc2c1CC(C)(C)NC2(C)C | 17.6 µM | 35 µM | inactive | – | – | –
Cc1cc(/C=c2/sc3nc4ccccc4n3c2=O)c(C)n1-c1ccccn1 | 21.7 µM | 30.9 µM | inactive | – | – | –
O=C(Nc1ccc(-c2nc3ccccc3o2)cc1)c1ccc(N2CCOCC2)c([N+](=O)[O-])c1 | > 100 µM | > 100 µM | > 100 µM (inactive) | – | – | –
CCC(=O)NC(c1cccs1)c1cc([N+](=O)[O-])c2cccnc2c1O (stereo not drawn) | 12.4 µM | 11.7 µM | 12.1 µM | – | – | –
O=C(c1ccco1)N1CCN(c2ncnc3c2[nH]c2ccc(Br)cc23)CC1 | 24.9 µM | 24.1 µM | inactive | – | – | –
COCCn1c(C)cc(C2=NNC(=NC3CC3)SC2)c1C | 1.32 µM | < 0.2 µM | 0.76 µM | – | – | –
COCc1ccc(CN2CCC(C(=O)Nc3cccc(-c4cccc(Cl)c4)c3)CC2)o1 | 16.8 µM | 9.78 µM | 13.3 µM | – | – | –
CC1=CC(C)[C@H](/C=N/n2c(=O)[nH]c3c([nH]c4ccc(Br)cc43)c2=O)C(C)C1 (stereo partly drawn) | > 100 µM | 5.42 µM | inactive | – | – | –
CCN(CC)CCNc1cccc2sc3ccccc3c(=O)c12 | 18.3 µM | 25.6 µM | inactive | – | – | –
Cc1ccccc1NC(=O)Nc1nc(C(N)C2CCCCC2)cs1 (stereo not drawn) | 21.1 µM | 26.5 µM | inactive | – | – | –
N#C/C(=C\c1cccc([N+](=O)[O-])c1)C(=O)NCc1ccc(Cl)cc1 | 14.7 µM | 13.4 µM | 14 µM | – | – | –
